Measured values reported in patent US7098209B2, “Pyrazino [1'2':1,6 ] pyrido [3, 4-b] indole-1,4-dione derivatives” (Lilly Icos LLC, priority 2001, dated 2006).

Tests used:
recombinant human PDE5 = recombinant human PDE5 (Homo sapiens, UniProt O76074); assay: Inhibitory effect on cGMP-PDE (PDE5 IC50 determination); format: biochemical; conditions: in vitro
Description: The compounds of structural formula (I) were tested for an ability to inhibit PDE5. The ability of a compound to inhibit PDE5 activity is related to the IC50 value for the compound, i.e., the concentration of inhibitor required for 50% inhibition of enzyme activity. The IC50 value for compounds of structural formula (I) were determined using recombinant human PDE5.
Phosphodiesterase activity of the preparations was determined as follows. PDE assays utilizing a charcoal separation technique were performed essentially as described in Loughney et al. (1996). In this assay, PDE activity converts [32P]cAMP or [32P]cGMP to the corresponding [32P]5′-AMP or [32P]5′-GMP in proportion to the amount of PDE activity present. The [32P]5′-AMP or [32P]5′-GMP then was quantitatively converted to free [32P]phosphate and unlabeled adenosine or guanosine by the action of snake venom 5′-nucleotidase. […] The assay was performed at 30° C. in a 100 μL reaction mixture containing (final concentrations) 40 mM Tris HCl (pH 8.0), 1 μM ZnSO4, 5 mM MgCl2, and 0.1 mg/mL bovine serum albumin (BSA). PDE enzyme was present in quantities that yield <30% total hydrolysis of substrate (linear assay conditions). The assay was initiated by addition of substrate ([…] [32P]cAMP or cGMP), and the mixture was incubated for 12 minutes. seventy-five (75) μg of Crotalus atrox venom then was added, and the incubation was continued for 3 minutes (15 minutes total). The reaction was stopped by addition of 200 μL of activated charcoal (25 mg/mL suspension in 0.1 M NaH2PO4, pH 4). After centrifugation (750×g for 3 minutes) to sediment the charcoal, a sample of the supernatant was taken for radioactivity determination in a scintillation counter and the PDE activity was calculated.
cGMP-PDE activity of compounds of the present invention was measured using a one-step assay adapted from Wells et al., Biochim. Biophys. Acta, 384, 430 (1975). The reaction medium contained 50 mM Tris-HCl, pH 7.5, 5 mM magnesium acetate, 250 μg/ml 5′-Nucleotidase, 1 mM EGTA, and 0.15 μM 8-[H^3]-cGMP. Unless otherwise indicated, the enzyme used was a human recombinant PDE5 (ICOS Corp., Bothell, Wash.).
Compounds of the invention were dissolved in DMSO finally present at 2% in the assay.

IC50 (recombinant human PDE5) [nM]	melting point [°C]	SMILES
124	386 to 387	CN1CC(=O)N2[C@H](c3ccc4c(c3)OCO4)c3c(c4ccccc4n3C)C[C@H]2C1=O [Example 1, (6R,12aS)-6-Benzo[1,3]dioxol-5-yl-2,7-dimethyl-2,3,6,7,12,12a-hexahydropyrazino[1′,2′:1,6]-pyrido[3,4-b]indole-1,4-dione]
571	–	CN1CC(=O)N2[C@H](c3ccc4c(c3)OCO4)c3c(c4ccccc4n3C)C[C@@H]2C1=O [Example 2, (6R,12aR)-6-Benzo[1,3]dioxol-5-yl-2,7-dimethyl-2,3,6,7,12,12a-hexahydropyrazino[1′,2′:1,6]-pyrido[3,4-b]indole-1,4-dione]
313	110 to 145	CN1CC(=O)N2[C@H](c3ccc4c(c3)OCO4)c3c(c4ccccc4n3Cc3ccccc3)C[C@H]2C1=O [Example 3, (6R,12aS)-6-Benzo[1,3]dioxol-5-yl-7-benzyl-2-methyl-2,3,6,7,12,12a-hexahydropyrazino-[1′,2′:1,6]pyrido[3,4-b]indole-1,4-dione]
7	145 to 159	CC(=O)n1c2c(c3ccccc31)C[C@@H]1C(=O)N(C)CC(=O)N1[C@@H]2c1ccc2c(c1)OCO2 [Example 4, (6R,12aR)-7-Acetyl-6-benzo[1,3]dioxol-5-yl-2-methyl-2,3,6,7,12,12a-hexahydropyrazino-[1′,2′:1,6]pyrido[3,4-b]indole-1,4-dione]
